From patent US5130414A, “Isolation and structural elucidation of the cyclic peptide hymenistatin 1” (Arizona Board of Regents, a body corporate of Arizona State …, priority 1989, dated 1992)

Tested on: murine P388 lymphocytic leukemia (PS system)
Assay: PS system cell growth inhibition (P388 murine leukemia cell line, N.C.I. Protocol)
Assay type: cell-based

Substance: cyclo [Hymenistatin 1, cyclo [Pro^a -Pro^b -Tyr-Val-Pro^c -Leu-Ili-Ile]]
- PS ED50: 3.5 µg/mL
